A short description of series [1]: MTT cytotoxicity test, small intestinal epithelial cells. The class given is cell-based, human. Particulars: human, FHs 74 Int normal small intestinal epithelial cells, FHs 74 Int cells, 100 µg/mL, 48 h, read-out: cell viability at the maximum concentration tested. As to the method:
(§1) Distigmasterol-modified acylglycerols were examined for their cytotoxicity in normal human cells originating from the digestive system. The cells were treated for 48 h with increasing concentrations of dStigMAs, and cell proliferation, metabolic activity, and viability were assayed using the MTT test. The cytotoxic effects of the analyzed dStigMAs on CCD 841CoN colon mucosa cells, FHs 74 Int small intestine epithelial cells, and THLE-2 hepatocytes are presented in Figure 6.
(§2) The cytotoxicity of dStigMAs was analyzed at the maximum concentration of 100 µg/mL, which corresponded to doses of 83 µM of dStigC-PA, 81 µM of dStigC-OA, 76 µM of dStigS-PA, and 75 µM of dStigS-OA. The minimum doses tested were 10,000-fold lower. Cell viability and metabolic activity were assessed using the MTT test following the procedure described by Olejnik et al..
(§3) Figure 6 Effect of dStigMAs on (A) normal small intestinal epithelial cells (FHs 74 Int, ATCC® CCL241™), (B) normal colonic epithelial cells (CCD 841CoN, ATCC® CRL-179™), and (C) normal liver cells (THLE-2, ATCC® CRL-2706™).
A general note: Tetrazolium dyes change colour on reduction, which living cells bring about.

Series [2] deals with FHs 74 Int small intestine epithelial cells. Described as above. Format: cell-based, human. As to conditions: FHs 74 Int cells; for dose at which first cytotoxic symptoms were noted: 48 h treatment; for EC50: Homo sapiens, FHs74Int, read-out: median effective concentration (EC50); for EC50 / cytotoxicity (in words): 48 h; for cytotoxicity (in words): 100 µg/mL and lower concentrations. How it is done: as §1, §2, §3

Series [3] in a line: MTT cytotoxicity test, colon mucosa cells. Format: cell-based, human. Particulars: human, CCD 841CoN normal colonic epithelial cells, colon cells (CCD 841CoN), 100 µg/mL, read-out: cell proliferation and viability at the maximum dose. How it is done: as §1, §2, §3
Series [4] can be described thus: MTT cytotoxicity test, hepatocytes. The class given is cell-based, human. As to conditions: human, THLE-2 normal liver cells (hepatocytes), liver cells (THLE-2), 100 µg/mL, read-out: cell proliferation and viability at the maximum dose. As to the method:
as §1, §2, §3

Series [5] concerns CCD 841CoN colon mucosa cells. Briefly: MTT cytotoxicity test, colon mucosa cells. Format: cell-based, human. Particulars: CCD 841CoN cells, 100 µg/mL and lower concentrations, 48 h. How it is done:
as §1, §2, §3

In another series the test system is THLE-2 hepatocytes. Briefly: MTT cytotoxicity test, hepatocytes. Format: cell-based, human. As to conditions: THLE-2 cells, 100 µg/mL and lower concentrations, 48 h. As to the method: as §1, §2, §3

Read-outs that look alike come from different tables or passages of the source.

On to `CCCCCCCCC=CCCCCCCCC(=O)OCC(COC(=O)OC1CCC2(C)C(=CCC3C2CCC2(C)C(C(C)C=CC(CC)C(C)C)CCC32)C1)OC(=O)OC1CCC2(C)C(=CCC3C2CCC2(C)C(C(C)C=CC(CC)C(C)C)CCC32)C1` (stereo not shown) [dStigC-OA, 2,3-Distigmasterylcarbonoyl-1-Oleoyl-sn-Glycerol], for which the viability at 48 h, 100 µg/mL came to 20.2% in series [1], 59.4% in series [3] and 48.9% in series [4]. For the same compound, in series [2], the “dose at which first cytotoxic symptoms were noted” value is given as 0.1 µg/mL. Further, the EC50 in series [2] was 0.47 µg/mL; in series [2] (value in brackets), 381 nM.

In the case of `CCCCCCCCCCCCCCCC(=O)OCC(COC(=O)O[C@H]1CC[C@@]2(C)C(=CC[C@H]3[C@@H]4CC[C@H]([C@H](C)/C=C/[C@@H](CC)C(C)C)[C@@]4(C)CC[C@@H]32)C1)OC(=O)O[C@H]1CC[C@@]2(C)C(=CC[C@H]3[C@@H]4CC[C@H]([C@H](C)/C=C/[C@@H](CC)C(C)C)[C@@]4(C)CC[C@@H]32)C1` (stereo partly shown) [dStigC-PA, 1,2-Distigmasterylcarbonoyl-3-Palmitoyl-sn-Glycerol], the viability at 48 h, 100 µg/mL in series [1] came out at 17.5%; in series [3] it was 53.8%; in series [4] it was 56.3%. Further, the “dose at which first cytotoxic symptoms were noted” value in series [2] is listed as 0.1 µg/mL. Besides, the values for the EC50 in series [2] and in series [2] (value in brackets) were 0.32 µg/mL and 266 nM, respectively.

Take `CCCCCCCCC=CCCCCCCCC(=O)OCC(COC(=O)CCC(=O)OC1CCC2(C)C(=CCC3C2CCC2(C)C(C(C)C=CC(CC)C(C)C)CCC32)C1)OC(=O)CCC(=O)OC1CCC2(C)C(=CCC3C2CCC2(C)C(C(C)C=CC(CC)C(C)C)CCC32)C1` (stereo not shown) [dStigS-OA, 2,3-Distigmasterylsuccinoyl-1-Oleoyl-sn-Glycerol]: the “cytotoxicity (in words)” value (in series [2]; in series [5]; in the series on THLE-2 hepatocytes) was “no cytotoxic activity” throughout.

The compound `CCCCCCCCCCCCCCCC(=O)OCC(COC(=O)CCC(=O)O[C@H]1CC[C@@]2(C)C(=CC[C@H]3[C@@H]4CC[C@H]([C@H](C)/C=C/[C@@H](CC)C(C)C)[C@@]4(C)CC[C@@H]32)C1)OC(=O)CCC(=O)O[C@H]1CC[C@@]2(C)C(=CC[C@H]3[C@@H]4CC[C@H]([C@H](C)/C=C/[C@@H](CC)C(C)C)[C@@]4(C)CC[C@@H]32)C1` (stereo partly shown) [dStigS-PA, 1,2-Distigmasterylsuccinoyl-3-Palmitoyl-sn-Glycerol] had a melting point of 91 to 93 °C. The “cytotoxicity (in words)” value in series [2] is reported as “no cytotoxic activity”. Further, the “cytotoxicity (in words)” value in series [5] is recorded as “no cytotoxic activity”. Further, the “cytotoxicity (in words)” value with THLE-2 hepatocytes is reported as “no cytotoxic activity”.

As a reminder, the melting point is the temperature of the solid-liquid transition.
